Values after ≈ are worked out from the molar mass of the structure shown. Values joined by “and” are separate entries in the source; they are usually repeats but may differ in a detail not shown here. Equal values may be shown once.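 In this assay, cells in 96-well plates receive the compound at five concentrations for 48 hours. Endpoints are linearly interpolated between the surrounding concentrations. The concentration for 50% growth inhibition is given as GI50. TGI denotes the concentration required for complete inhibition of growth.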
Assays:
Test in all cases: NCI-60 cell line screen, 48 h
[1] = system: SNB-75 CNS
[2] = system: M14 melanoma
[3] = system: SN12C renal
[4] = system: NCI-H522 lung
[5] = system: OVCAR-4 ovarian
[6] = system: HT29 colon
[7] = system: TK-10 renal
[8] = system: SF-539 CNS
[9] = system: HCT-116 colon
[10] = system: OVCAR-5 ovarian
[11] = system: CAKI-1 renal
[12] = system: HL-60(TB) leukemia
[13] = system: HCT-15 colon
[14] = system: NCI-H226 lung
[15] = system: BT-549 breast
[16] = system: UACC-62 melanoma
[17] = system: HCC-2998 colon
[18] = system: SK-MEL-5 melanoma
[19] = system: A498 renal
[20] = system: KM12 colon
[21] = system: OVCAR-3 ovarian
[22] = system: RPMI-8226 leukemia
[23] = system: SK-MEL-2 melanoma
[24] = system: SNB-19 CNS
[25] = system: T-47D breast
[26] = system: SK-OV-3 ovarian
[27] = system: 786-0 renal
[28] = system: HOP-92 NSCLC
[29] = system: HS 578T breast
[30] = system: MDA-MB-231 breast

Q: With CC1(C)CC(=O)C2=C(C1)NC(SSC1=C(C#N)C(c3ccc(Br)cc3)C3=C(CC(C)(C)CC3=O)N1)=C(C#N)C2c1ccc(Br)cc1 (centres undefined) as the compound, how does the GI50 [1] read?
A: > 150 µg/mL

Q: What about the TGI [1] of the same compound?
A: 150 µg/mL (≈ 193 µM)

Q: And the GI50 [2]?
A: 51.4 µg/mL (≈ 66.2 µM)

Q: What about the TGI [2] of the same compound?
A: > 100 µM and 150 µg/mL

Q: What about the GI50 [3] of the same compound?
A: 71.2 µg/mL (≈ 91.7 µM)

Q: And the TGI [3]?
A: > 100 µM and 150 µg/mL

Q: And the GI50 [4]?
A: 30 µg/mL (≈ 38.6 µM)

Q: What about the TGI [4] of the same compound?
A: > 100 µM and 53.5 µg/mL

Q: And the GI50 [5]?
A: 34.4 µg/mL (≈ 44.2 µM)

Q: And the TGI [5]?
A: > 100 µM and 84.8 µg/mL

Q: What about the GI50 [6] of the same compound?
A: > 150 µg/mL

Q: And the TGI [6]?
A: > 100 µM and 150 µg/mL

Q: What about the GI50 [7] of the same compound?
A: > 150 µg/mL

Q: What about the TGI [7] of the same compound?
A: > 100 µM and 150 µg/mL

Q: What about the GI50 [8] of the same compound?
A: > 150 µg/mL

Q: What about the TGI [8] of the same compound?
A: > 100 µM and 150 µg/mL

Q: And the GI50 [9]?
A: 89.8 µg/mL (≈ 116 µM)

Q: What about the TGI [9] of the same compound?
A: > 100 µM and 150 µg/mL

Q: What about the GI50 [10] of the same compound?
A: > 150 µg/mL

Q: What about the TGI [10] of the same compound?
A: > 100 µM and 150 µg/mL

Q: What about the GI50 [11] of the same compound?
A: > 150 µg/mL

Q: What about the TGI [11] of the same compound?
A: > 100 µM and 150 µg/mL

Q: And the GI50 [12]?
A: 31.2 µg/mL (≈ 40.2 µM)

Q: And the TGI [12]?
A: > 100 µM and 77.1 µg/mL

Q: What about the GI50 [13] of the same compound?
A: 88.6 µg/mL (≈ 114 µM)

Q: And the TGI [13]?
A: > 100 µM and 150 µg/mL

Q: What about the GI50 [14] of the same compound?
A: > 150 µg/mL

Q: What about the TGI [14] of the same compound?
A: > 100 µM and 150 µg/mL

Q: What about the GI50 [15] of the same compound?
A: 28.1 µg/mL (≈ 36.2 µM)

Q: What about the TGI [15] of the same compound?
A: > 100 µM and 52 µg/mL

Q: What about the GI50 [16] of the same compound?
A: 122 µg/mL (≈ 157 µM)

Q: What about the TGI [16] of the same compound?
A: > 100 µM and 150 µg/mL

Q: And the GI50 [17]?
A: > 150 µg/mL

Q: And the TGI [17]?
A: 150 µg/mL (≈ 193 µM)

Q: And the GI50 [18]?
A: > 150 µg/mL

Q: And the TGI [18]?
A: > 100 µM and 150 µg/mL

Q: What about the GI50 [19] of the same compound?
A: > 150 µg/mL

Q: What about the TGI [19] of the same compound?
A: > 100 µM and 150 µg/mL

Q: What about the GI50 [20] of the same compound?
A: > 150 µg/mL

Q: What about the TGI [20] of the same compound?
A: > 100 µM and 150 µg/mL

Q: And the GI50 [21]?
A: > 150 µg/mL

Q: And the TGI [21]?
A: > 100 µM and 150 µg/mL

Q: And the GI50 [22]?
A: 30.6 µg/mL (≈ 39.5 µM)

Q: And the TGI [22]?
A: > 100 µM and 79.3 µg/mL

Q: And the GI50 [23]?
A: > 150 µg/mL

Q: And the TGI [23]?
A: > 100 µM and 150 µg/mL

Q: What about the GI50 [24] of the same compound?
A: > 150 µg/mL

Q: What about the TGI [24] of the same compound?
A: > 100 µM and 150 µg/mL

Q: And the GI50 [25]?
A: 35 µg/mL (≈ 45.1 µM)

Q: What about the TGI [25] of the same compound?
A: > 100 µM and 119 µg/mL

Q: And the GI50 [26]?
A: > 150 µg/mL

Q: And the TGI [26]?
A: > 100 µM and 150 µg/mL

Q: And the GI50 [27]?
A: 53.8 µg/mL (≈ 69.2 µM)

Q: And the TGI [27]?
A: > 100 µM and 150 µg/mL

Q: What about the GI50 [28] of the same compound?
A: 46.4 µg/mL (≈ 59.7 µM)

Q: And the TGI [28]?
A: > 100 µM and 116 µg/mL

Q: And the GI50 [29]?
A: 43.5 µg/mL (≈ 56 µM)

Q: And the TGI [29]?
A: > 100 µM and 150 µg/mL

Q: And the GI50 [30]?
A: 26.6 µg/mL (≈ 34.3 µM)

Reference: PubChem BioAssay (NCI)
